According to patent US12012402B2, “Pyrido[2,3-d]pyrimidin-7-ones and related compounds as inhibitors of protein kinases” (UNIVERSITY OF HOUSTON SYSTEM, priority 2017, dated 2024):

How the values were obtained:
[1] = biological target: Recombinant RIPK2 protein (Homo sapiens, UniProt O43353); assay: Receptor Interacting Protein Kinase 2 (RIPK2) enzyme assay (ADP-Glo); type: biochemical; conditions: 2 h at room temperature
From the text: Receptor Interacting Protein Kinase 2 (RIPK2) Enzyme Assay
Inhibition, %=(1−(test signal/maximal signal))*100.

[2] = test system: NOD2 cellular signaling; assay: NOD2 signaling assay in HEK-Blue cells (NFkB-SEAP reporter, L18-MDP stimulated); type: cell-based; conditions: HEK-Blue cells expressing human NOD2, L18-MDP stimulation, 8 h; NI = no inhibition observed; read-out: EC50 HEK Blue RIPK2
Method: HEK-Blue cells expressing human NOD2 and NFkB-SAEP reporter (Invivogen) are seeded into 96 well clear plates at 7.5×10^3 cells per well in 100 μL of DMEM media supplemented with 10% FBS and 1% antibiotic-antimycotic mix. Cells are allowed to attach for 48 h in 5% CO2 tissue culture incubator at 37° C. On the morning of the experiment, media in the wells is replaced with 100 μL of HEK-Blue detection media (Invivogen). Cells are treated with the inhibitors, diluted in DMSO (0.5 μL per well) for 15 min in 5% CO2 tissue culture incubator at 37° C. After that, cells are stimulated by the addition of 1 ng/well L18-MDP (Invivogen). Cells are incubated in 5% CO2 tissue culture incubator at 37° C. for 8 h and absorbance, corresponding to the SEAP in the media, is determined in Wallac3V plate reader (Perkin Elmer). Inhibition, %=(1−((sample signal-unstimulated and DMSO treated cells)/(L18-MDP stimulated and DMSO treated cells—unstimulated and DMSO treated cells)))*100.

[3] = biological target: T1, human ALK2 (Homo sapiens, UniProt Q04771); assay: Activin-Like Kinase 2 (ALK2) enzyme assay (33P-casein); type: biochemical; conditions: casein 1 mg/mL, 30 min; NI = no inhibition observed
T1 sequence (Q04771 21-509): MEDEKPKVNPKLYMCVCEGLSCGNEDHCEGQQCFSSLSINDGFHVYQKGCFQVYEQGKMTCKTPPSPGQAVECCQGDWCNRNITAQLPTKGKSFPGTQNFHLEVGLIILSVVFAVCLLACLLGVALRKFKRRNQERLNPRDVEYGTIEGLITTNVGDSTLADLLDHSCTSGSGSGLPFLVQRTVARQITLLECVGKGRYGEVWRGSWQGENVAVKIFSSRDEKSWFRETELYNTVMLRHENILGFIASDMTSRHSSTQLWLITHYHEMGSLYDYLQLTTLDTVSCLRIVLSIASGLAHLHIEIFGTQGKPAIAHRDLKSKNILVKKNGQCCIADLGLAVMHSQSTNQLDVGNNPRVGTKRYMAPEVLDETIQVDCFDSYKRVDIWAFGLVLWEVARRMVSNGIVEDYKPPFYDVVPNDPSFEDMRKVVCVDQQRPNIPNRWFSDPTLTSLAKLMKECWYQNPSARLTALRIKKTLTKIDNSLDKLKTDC
Method: Activin-Like Kinase 2 (ALK2) Enzyme Assay
Enzyme inhibitory activity was evaluated in a standard kinase enzyme assay by incubating human ALK2 with the protein substrate casein (1 mg/mL) and γ-^33ATP (10 µM) in the presence of various concentrations of test compounds (10 nM-100 μM). After 30 min the amount of ^33P-casein was determined.

Chain of Recombinant RIPK2 protein (O43353 whole entry): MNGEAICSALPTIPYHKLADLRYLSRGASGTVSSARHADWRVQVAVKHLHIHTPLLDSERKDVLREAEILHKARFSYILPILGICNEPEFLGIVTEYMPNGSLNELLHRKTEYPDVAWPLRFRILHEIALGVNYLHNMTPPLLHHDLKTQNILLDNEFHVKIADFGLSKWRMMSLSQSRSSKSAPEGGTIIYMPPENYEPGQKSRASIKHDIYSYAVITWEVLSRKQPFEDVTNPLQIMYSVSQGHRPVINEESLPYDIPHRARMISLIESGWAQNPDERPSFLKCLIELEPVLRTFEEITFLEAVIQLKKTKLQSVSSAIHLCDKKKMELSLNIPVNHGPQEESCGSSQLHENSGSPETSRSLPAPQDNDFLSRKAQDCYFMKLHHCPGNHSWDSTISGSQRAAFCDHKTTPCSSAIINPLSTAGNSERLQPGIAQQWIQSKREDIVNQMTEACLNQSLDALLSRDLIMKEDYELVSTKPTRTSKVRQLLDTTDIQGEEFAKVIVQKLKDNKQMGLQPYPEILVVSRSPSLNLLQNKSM

| Compound | IC50 [1] | EC50 [2] | IC50 [3] |
| --- | --- | --- | --- |
| CS(=O)(=O)c1cccc(Nc2ncc3cc(-c4cccnc4)ccc3n2)c1 [UH15PN6, N-(3-(methylsulfonyl)phenyl)-6-(pyridin-3-yl)quinazolin-2-amine] | 25 nM | 450 nM |  |
| Cn1c(=O)c(-c2ccccc2Cl)cc2cnc(Nc3ccccn3)nc21 [UH15_35, 6-(2-chlorophenyl)-8-methyl-2-(pyridin-2-ylamino)pyrido[2,3-d]pyrimidin-7(8H)-one] | 87.4 nM | 949 nM |  |
| CS(=O)(=O)c1cccc(Nc2ncc3cc(-c4ccccn4)ccc3n2)c1 [UH15PN5, N-(3-(methylsulfonyl)phenyl)-6-(pyridin-2-yl)quinazolin-2-amine] | 41.5 nM | 1960 nM |  |
| CCN(CC)CCOc1ccc(Nc2ncc3cc(-c4ccccc4Cl)ccc3n2)cc1 [UH15PN1, 6-(2-chlorophenyl)-N-(4-(2-(diethylamino)ethoxy)phenyl)quinazolin-2-amine] | 22.1 nM | 168 nM | 326 nM |
| Cn1c(=O)c(-c2ccccc2Cl)cc2cnc(Nc3cccc(N4CCNCC4)c3)cc21 [UH15_25, 3-(2-chlorophenyl)-1-methyl-7-((3-(piperazin-1-yl)phenyl)amino)-1,6-naphthyridin-2(1H)-one] |  | 55 nM |  |
| CS(=O)(=O)c1cccc(Nc2ncc3cc(-c4ccccc4Cl)ccc3n2)c1 [UH15PN2, 6-(2-chlorophenyl)-N-(3-(methylsulfonyl)phenyl)quinazolin-2-amine] | 30.2 nM | 353 nM | > 100000 nM |
| CS(=O)(=O)c1cccc(Nc2ncc3cc(-c4ccc(O)cc4)ccc3n2)c1 [UH15PN3, 4-(2-((3-(methylsulfonyl)phenyl)amino)quinazolin-6-yl)phenol] | 29.6 nM |  | 8420 nM |
| Cn1c(=O)c(-c2ccccc2Cl)cc2cnc(Nc3cccc(N4CCNCC4)c3)nc21 [UH15_33, 6-(2-chlorophenyl)-8-methyl-2-((3-(piperazin-1-yl)phenyl)amino)pyrido[2,3-d]pyrimidin-7(8H)-one] | 21.6 nM | 0.2 nM | 226 nM |
| Cn1c(=O)c(-c2ccccc2Cl)cc2cnc(Nc3cccc(S(C)(=O)=O)c3)cc21 [UH15_32, 3-(2-chlorophenyl)-1-methyl-7-((3-(methylsulfonyl)phenyl)amino)-1,6-naphthyridin-2(1H)-one] | 27.3 nM | 406 nM | > 100000 nM |
| Cn1c(=O)c(-c2ccccc2Cl)cc2cnc(Nc3cccnc3)nc21 [UH15_34, 6-(2-chlorophenyl)-8-methyl-2-(pyridin-3-ylamino)pyrido[2,3-d]pyrimidin-7(8H)-one] | 35.2 nM | 34 nM | 1100 nM |
